Measurements from US20190031717A1, “MULTI-FUNCTIONAL FUSION POLYPEPTIDE, PREPARATION METHOD THEREOF, AND APPLICATION OF SAME” (NANJING ANJI BIOLOGICAL TECHNOLOGY CO., LTD, priority 2016, published 2019).

Key:
Uterine cancer = assay: MTT assay, tumor cells; format: cell-based, human; parameters: concentration or dose not given beside the values; conditions: 48 hours, mean ± SD
Procedure: (§1) A variety of human tumor cells were cultured in a 37° C., 5% (volume fraction) CO2 incubator to a density of 90% or more, collected by trypsinization, resuspended in a culture medium and counted under a microscope, and the cells were harvested. The concentration was adjusted to 2.0×10^4 cells/mL, the cell suspension was inoculated into a 96-well plate at 100 μL per well and cultured overnight at 37° C. in a 5% (volume fraction) CO2 incubator. After the cells were completely adhered, the polypeptides of the present invention were added as drug-administered groups, and a culture solution containing no drug was used as a blank control group, and the culture solution was diluted to each predetermined concentration. Each dilution was separately added to a 96-well plate at 100 μL per well and incubated for 48 hours at 37° C. in a 5% (volume fraction) CO2 incubator. 20 μL of 5 mg/mL MTT was added to each well of a 96-well plate and incubation was continued for 4 h. The medium was aspirated and dissolved in 100 μL of DMSO per well. The absorbance was measured with a microplate reader at a detection wavelength of 570 nm and a reference wavelength of 630 nm, and the growth inhibition rate was calculated as follows: tumor growth inhibition rate (%)=(1−absorbance value of the administered group/unadministered group absorbance value)×100%, and the experiment was repeated 3 times independently. The results obtained from the test were expressed as mean±standard deviation, and the tumor growth inhibition rate of the unadministered group was 0. The results in Table 7 indicate that the polypeptides of the present invention have a significant inhibitory effect on the growth of various tumors (FIG. 6).

Ovarian cancer = assay: MTT assay, tumor cells; format: cell-based, human; parameters: concentration or dose not given beside the values; conditions: 48 hours, mean ± SD
Procedure: as §1

Gastric cancer = assay: MTT assay, tumor cells; format: cell-based, human; parameters: concentration or dose not given beside the values; conditions: 48 hours, mean ± SD
Procedure: as §1

Esophageal cancer = assay: MTT assay, tumor cells; format: cell-based, human; parameters: concentration or dose not given beside the values; conditions: 48 hours, mean ± SD
Procedure: as §1

Thyroid cancer = assay: MTT assay, tumor cells; format: cell-based, human; parameters: concentration or dose not given beside the values; conditions: 48 hours, mean ± SD
Procedure: as §1

Liver cancer = assay: MTT assay, tumor cells; format: cell-based, human; parameters: concentration or dose not given beside the values; conditions: 48 hours, mean ± SD
Procedure: as §1

Head and neck cancer = assay: MTT assay, tumor cells; format: cell-based, human; parameters: concentration or dose not given beside the values; conditions: 48 hours, mean ± SD
Procedure: as §1

Bladder Cancer = assay: MTT assay, tumor cells; format: cell-based, human; parameters: concentration or dose not given beside the values; conditions: 48 hours, mean ± SD
Procedure: as §1

Breast cancer = assay: MTT assay, tumor cells; format: cell-based, human; parameters: concentration or dose not given beside the values; conditions: 48 hours, mean ± SD
Procedure: as §1

Pancreatic cancer = assay: MTT assay, tumor cells; format: cell-based, human; parameters: concentration or dose not given beside the values; conditions: 48 hours, mean ± SD
Procedure: as §1

Prostate cancer = assay: MTT assay, tumor cells; format: cell-based, human; parameters: concentration or dose not given beside the values; conditions: 48 hours, mean ± SD
Procedure: as §1

Colorectal cancer = assay: MTT assay, tumor cells; format: cell-based, human; parameters: concentration or dose not given beside the values; conditions: 48 hours, mean ± SD
Procedure: as §1

Hemangioma = assay: MTT assay, tumor cells; format: cell-based, human; parameters: concentration or dose not given beside the values; conditions: 48 hours, mean ± SD
Procedure: as §1

Melanoma = assay: MTT assay, tumor cells; format: cell-based, human; parameters: concentration or dose not given beside the values; conditions: 48 hours, mean ± SD
Procedure: as §1

Kidney cancer = assay: MTT assay, tumor cells; format: cell-based, human; parameters: concentration or dose not given beside the values; conditions: 48 hours, mean ± SD
Procedure: as §1

sarcoma = assay: MTT assay, tumor cells; format: cell-based, human; parameters: concentration or dose not given beside the values; conditions: 48 hours, mean ± SD
Procedure: as §1

Brain tumor = assay: MTT assay, tumor cells; format: cell-based, human; parameters: concentration or dose not given beside the values; conditions: 48 hours, mean ± SD
Procedure: as §1

Cervical cancer = assay: MTT assay, tumor cells; format: cell-based, human; parameters: concentration or dose not given beside the values; conditions: 48 hours, mean ± SD
Procedure: as §1

[1] = tested on: Pneumonia caused by lung infection; assay: Mouse pneumonia model, pneumonia caused by lung infection; format: in vivo, BALB/C mice; parameters: concentration or dose not given beside the values; conditions: mean ± SD
Procedure: (§2) The mouse pneumonia model was successfully established by the nose-drop method. To build the mouse pneumonia model, BALB/C mice with a body mass of 16-22 g were selected and anesthetized pneumonia chain was prepared after anesthesia with ether on day 0, day 1, and day 2. Staphylococcal fluid, adenovirus concentrate, Mycoplasma pneumoniae, Chlamydia pneumoniae, protozoa, and pneumonia fungi were slowly dripped into the nasal cavity of the mice, so that they enter the tracheobronchial. During the operation process, care was exercised to prevent bacterial fluid from flowing into the esophagus, which leads to inactivation the bacterial fluid. After successful model establishment, the polypeptides of the present invention were administered, and the results were shown in Table 5. […] The results were expressed in average value±standard deviation.

adenovirus concentrate = assay: Mouse pneumonia model, viral; format: in vivo, BALB/C mice; conditions: mean ± SD
Procedure: as §2

Chlamydia pneumoniae = assay: Mouse pneumonia model, chlamydia; format: in vivo, BALB/C mice; parameters: concentration or dose not given beside the values; conditions: mean ± SD
Procedure: as §2

Staphylococcal fluid = assay: Mouse pneumonia model, bacterial; format: in vivo, BALB/C mice; parameters: concentration or dose not given beside the values; conditions: mean ± SD
Procedure: as §2

Mycoplasma pneumoniae = assay: Mouse pneumonia model, mycoplasma; format: in vivo, BALB/C mice; parameters: concentration or dose not given beside the values; conditions: mean ± SD
Procedure: as §2

| Substance | tumor growth inhibition rate, MTT Assay (Uterine cancer) [%] | tumor growth inhibition rate, MTT Assay (Ovarian cancer) [%] | tumor growth inhibition rate, MTT Assay (Gastric cancer) [%] | tumor growth inhibition rate, MTT Assay (Esophageal cancer) [%] | tumor growth inhibition rate, MTT Assay (Thyroid cancer) [%] | tumor growth inhibition rate, MTT Assay (Liver cancer) [%] | tumor growth inhibition rate, MTT Assay (Head and neck cancer) [%] | tumor growth inhibition rate, MTT Assay (Bladder Cancer) [%] | tumor growth inhibition rate, MTT Assay (Breast cancer) [%] | tumor growth inhibition rate, MTT Assay (Pancreatic cancer) [%] | tumor growth inhibition rate, MTT Assay (Prostate cancer) [%] | tumor growth inhibition rate, MTT Assay (Colorectal cancer) [%] | tumor growth inhibition rate, MTT Assay (Hemangioma) [%] | tumor growth inhibition rate, MTT Assay (Melanoma) [%] | tumor growth inhibition rate, MTT Assay (Kidney cancer) [%] | tumor growth inhibition rate, MTT Assay (sarcoma) [%] | tumor growth inhibition rate, MTT Assay (Brain tumor) [%] | tumor growth inhibition rate, MTT Assay (Cervical cancer) [%] | Inhibitory Effects on Various Pulmonary Infections [1] [%] | Inhibitory Effects on Various Pulmonary Infections (adenovirus concentrate) [%] | also measured |
| --- | --- | --- | --- | --- | --- | --- | --- | --- | --- | --- | --- | --- | --- | --- | --- | --- | --- | --- | --- | --- | --- |
| Pro-(D-Pyr)-(D-Cys)-Bip-Arg-Gly-Glu-Gly-Gly-Gly-Gly-Ile-Val-Arg-Arg-Ala-Asp-Arg-Ala-Ala-Val-Pro-Gly-Gly-Gly-Gly-Arg-Gly-Asp [Polypeptide I] | 58.14 ± 19.48 | 67.74 ± 18.82 | 48.41 ± 16.78 | 49.07 ± 13.63 | 46.70 ± 12.97 | 54.38 ± 15.11 | 36.22 ± 10.06 | 38.69 ± 10.75 | 68.27 ± 18.96 | 54.91 ± 18.59 | 60.28 ± 20.08 | 63.55 ± 17.65 | 76.08 ± 21.13 | 42.41 ± 11.78 | 44.70 ± 15.75 | 49.18 ± 13.66 | 51.00 ± 14.17 | 56.16 ± 22.27 | 38.79 ± 16.78 | 43.78 ± 14.17 | Inhibitory Effects on Various Pulmonary Infections (Chlamydia pneumoniae): 35.13 ± 13.63%; Inhibitory Effects on Various Pulmonary Infections (Staphylococcal fluid): 33.15 ± 10.06%; Inhibitory Effects on Various Pulmonary Infections (Mycoplasma pneumoniae): 29.89 ± 12.97% |
| Ile-Val-Arg-Arg-Ala-Asp-Arg-Ala-Ala-Val-Pro-Gly-Gly-Gly-Gly-Pro-(D-Pyr)-(D-Cys)-Bip-Arg-Gly-Glu-Gly-Gly-Gly-Gly-Arg-Gly-Asp [Polypeptide II] | 64.54 ± 21.82 | 88.74 ± 21.07 | 63.41 ± 18.79 | 64.28 ± 15.27 | 61.18 ± 14.53 | 71.24 ± 16.92 | 47.44 ± 11.27 | 50.68 ± 12.04 | 89.43 ± 21.24 | 71.93 ± 20.82 | 78.96 ± 22.49 | 83.25 ± 19.77 | 84.45 ± 23.67 | 55.55 ± 13.19 | 58.56 ± 17.64 | 64.42 ± 15.30 | 66.81 ± 15.87 | 62.34 ± 24.94 | 50.81 ± 14.48 | 57.35 ± 16.34 | Inhibitory Effects on Various Pulmonary Infections (Chlamydia pneumoniae): 46.02 ± 13.12%; Inhibitory Effects on Various Pulmonary Infections (Staphylococcal fluid): 43.43 ± 12.38%; Inhibitory Effects on Various Pulmonary Infections (Mycoplasma pneumoniae): 39.16 ± 11.16% |
